Literature values in article PMC3745299 (Journal of medicinal chemistry, 2013).
Read-outs that look alike come from different tables or passages of the source.

Legend:
[1] = system: Mycobacterium tuberculosis
Cyp450 [2] = details: dog
Cyp450 [3] = details: rat
[4] = system: human pregnane X receptor (hPXR); details: below 100 μM

## CO[C@H]1/C=C/O[C@@]2(C)Oc3c(C)c(O)c4c(=O)c(c5oc6cc(N7CCN(CC(C)C)CC7)cc(O)c6nc-5c4c3C2=O)NC(=O)/C(C)=C\C=C\[C@H](C)[C@H](O)[C@@H](C)[C@@H](O)[C@@H](C)[C@H](OC(C)=O)[C@@H]1C [bxRIF2a, rifalazil]
[1]
  MIC90: < 4 nM
Cyp450 [2]
  Cyp450 induction activity: dramatically reduced
Cyp450 [3]
  Cyp450 induction activity: dramatically reduced
[4]
  hPXR activation in vitro: essentially no hPXR activation
